Test system: normal human dermal fibroblasts (NHDF) from a donor
Test: collagen induction assay (Pro-collagen Type I EIA) in aged fibroblasts
Type: cell-based
Conditions: 72 hr, 18 ug/ml, positive control
Procedure: Moringa oleifera seed extract was tested at various concentrations for its ability to stimulate collagen production in normal human dermal fibroblasts (“NHDF”) from a donor in a collagen induction assay. Moringa oleifera extract diluted in dimethylsulfoxide (“DMSO”) (% concentrations 0.003125, 0.00625 and 0.0125), Moringa oleifera […] diluted in Dulbecco's Modified Eagle Medium supplemented with 10% Hyclone® bovine calf serum and 1% Cellgro® penicillin-streptomycin solution (“DMEM”) (% concentrations of 0.0000625, 0.000125, 0.00025, 0.0005), positive control (L-ascorbic acid, 18 ug/ml), and DMEM alone were tested. Cell Growth and Maintenance. Aged NHDF were obtained from ZenBio. Fibroblasts were cultured in DMEM 1× (Life Tech) supplemented with 10% bovine calf serum (Hyclone) and 1% PenStrep solution (Cellgro). Cells were regularly maintained; subcultured as needed. Normal human dermal fibroblasts (NHDF, aged) were plated on a 96-well plate in supplemented DMEM (as indicated above). […] Alamar Blue results were determined using a plate reader. Data was analyzed using the SoftMax Pro software and Excel. Collagen production was assessed using the Pro-collagen Type I collagen EIA Kit (Takara) as per manufacturer's protocol, exactly as described. Plate was read using the Gemini M2E plate reader and results were compared. […]

SMILES: O=C1O[C@H]([C@@H](O)CO)C(O)=C1O [L-ascorbic acid (+Control), L-ascorbic acid]
- % increase in collagen induction: +16%

Source: patent US9877916B2, “Methods and compositions for treating aged skin” (ELC Management LLC, priority 2016, dated 2018)
